# Reference: patent publication US10494332B2, “Protein tyrosine phosphatases or SHP2 inhibitors and uses thereof” (Indiana University Research and Technology Corporation, priority 2015, dated 2019)
# Molecular target: PTPβ (Homo sapiens, UniProt P23467)
# Assay: PTP inhibition assay (pNPP)
# Type: biochemical
# Conditions: not given
# Chain of PTPβ (P23467 23-1997): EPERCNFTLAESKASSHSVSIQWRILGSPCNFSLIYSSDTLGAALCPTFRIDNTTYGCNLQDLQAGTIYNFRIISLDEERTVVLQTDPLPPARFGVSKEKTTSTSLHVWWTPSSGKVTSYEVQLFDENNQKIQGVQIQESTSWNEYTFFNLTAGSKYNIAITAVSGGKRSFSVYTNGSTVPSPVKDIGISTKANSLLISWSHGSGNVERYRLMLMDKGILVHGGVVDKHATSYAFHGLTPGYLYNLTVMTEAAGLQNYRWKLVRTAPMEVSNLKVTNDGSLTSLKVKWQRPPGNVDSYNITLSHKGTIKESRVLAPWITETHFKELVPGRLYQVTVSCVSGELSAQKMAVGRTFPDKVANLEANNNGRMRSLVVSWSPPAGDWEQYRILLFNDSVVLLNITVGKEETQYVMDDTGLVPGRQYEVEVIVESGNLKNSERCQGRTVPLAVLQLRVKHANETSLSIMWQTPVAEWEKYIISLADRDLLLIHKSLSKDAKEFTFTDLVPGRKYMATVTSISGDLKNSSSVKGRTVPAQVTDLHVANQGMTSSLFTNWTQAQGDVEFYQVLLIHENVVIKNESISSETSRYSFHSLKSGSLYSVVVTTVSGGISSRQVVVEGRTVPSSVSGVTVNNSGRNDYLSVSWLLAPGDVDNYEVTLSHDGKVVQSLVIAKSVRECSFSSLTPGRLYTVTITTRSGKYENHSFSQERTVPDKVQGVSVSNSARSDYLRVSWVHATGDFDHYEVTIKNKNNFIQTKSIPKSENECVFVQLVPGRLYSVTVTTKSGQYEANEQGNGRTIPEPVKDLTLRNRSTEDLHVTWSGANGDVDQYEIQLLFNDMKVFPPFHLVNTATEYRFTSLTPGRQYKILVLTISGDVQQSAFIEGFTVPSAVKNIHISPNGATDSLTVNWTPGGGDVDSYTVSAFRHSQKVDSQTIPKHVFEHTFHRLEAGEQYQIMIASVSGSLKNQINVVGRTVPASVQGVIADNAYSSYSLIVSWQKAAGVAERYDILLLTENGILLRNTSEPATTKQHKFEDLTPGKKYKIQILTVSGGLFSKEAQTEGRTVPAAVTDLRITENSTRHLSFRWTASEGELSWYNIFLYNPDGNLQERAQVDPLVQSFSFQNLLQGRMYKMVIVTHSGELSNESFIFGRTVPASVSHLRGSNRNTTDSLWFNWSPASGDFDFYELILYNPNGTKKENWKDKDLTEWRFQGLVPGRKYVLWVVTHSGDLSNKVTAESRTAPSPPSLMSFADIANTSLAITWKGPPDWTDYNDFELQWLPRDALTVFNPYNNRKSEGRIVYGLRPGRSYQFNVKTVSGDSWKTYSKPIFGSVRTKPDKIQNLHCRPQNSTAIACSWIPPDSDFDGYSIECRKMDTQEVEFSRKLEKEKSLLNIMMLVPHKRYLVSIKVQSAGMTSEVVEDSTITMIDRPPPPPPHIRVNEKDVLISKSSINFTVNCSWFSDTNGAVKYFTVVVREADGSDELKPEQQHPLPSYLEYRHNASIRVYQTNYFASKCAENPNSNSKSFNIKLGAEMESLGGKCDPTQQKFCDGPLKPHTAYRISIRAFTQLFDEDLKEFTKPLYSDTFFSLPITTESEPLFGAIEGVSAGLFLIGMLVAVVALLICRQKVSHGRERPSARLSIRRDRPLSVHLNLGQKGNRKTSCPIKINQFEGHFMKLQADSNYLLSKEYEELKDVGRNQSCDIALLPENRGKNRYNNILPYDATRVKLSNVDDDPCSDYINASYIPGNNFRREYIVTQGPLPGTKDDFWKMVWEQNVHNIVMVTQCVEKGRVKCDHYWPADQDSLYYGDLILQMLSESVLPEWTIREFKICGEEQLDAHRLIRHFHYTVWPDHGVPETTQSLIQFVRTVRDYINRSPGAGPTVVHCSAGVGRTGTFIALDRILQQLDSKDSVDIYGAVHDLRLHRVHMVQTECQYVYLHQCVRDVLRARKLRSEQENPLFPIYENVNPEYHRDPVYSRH
row,SMILES,IC50 [µM]
1,O=C(C(c1ccccc1)S(=O)(=O)O)N1CCC(c2ccc(Cl)c(Cl)c2)CC1 (stereo not drawn) [Compound L319N47],50
2,O=C(CS(=O)(=O)O)Nc1nc2ccc([N+](=O)[O-])cc2s1 [Compound L335N15-07],> 100

# Molecular target: T1, PP5 (Homo sapiens, UniProt P53041)
# T1 sequence (P53041 1-499): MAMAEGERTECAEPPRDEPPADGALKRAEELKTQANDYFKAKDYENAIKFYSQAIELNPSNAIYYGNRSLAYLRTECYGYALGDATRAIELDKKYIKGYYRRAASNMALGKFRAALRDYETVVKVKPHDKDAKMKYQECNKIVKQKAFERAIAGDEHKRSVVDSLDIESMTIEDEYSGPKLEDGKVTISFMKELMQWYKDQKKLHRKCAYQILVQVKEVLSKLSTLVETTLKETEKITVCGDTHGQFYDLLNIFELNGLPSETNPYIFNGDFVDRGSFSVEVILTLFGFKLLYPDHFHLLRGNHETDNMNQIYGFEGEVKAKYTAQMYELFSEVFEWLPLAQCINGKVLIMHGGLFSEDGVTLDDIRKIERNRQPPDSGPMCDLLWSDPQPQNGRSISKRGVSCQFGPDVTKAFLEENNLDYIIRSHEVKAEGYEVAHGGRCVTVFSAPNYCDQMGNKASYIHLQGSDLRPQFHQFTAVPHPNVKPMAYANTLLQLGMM
# Assay: Phosphatase inhibition assay (pNPP)
# Conditions: not given
row,SMILES,IC50 [µM]
1,O=C(C(c1ccccc1)S(=O)(=O)O)N1CCC(c2ccc(Cl)c(Cl)c2)CC1 (stereo not drawn) [Compound L319N47],> 200
2,O=C(CS(=O)(=O)O)Nc1nc2ccc([N+](=O)[O-])cc2s1 [Compound L335N15-07],> 100

# Molecular target: T2, PTP1B (Homo sapiens, UniProt P18031)
# T2 sequence (P18031 1-435): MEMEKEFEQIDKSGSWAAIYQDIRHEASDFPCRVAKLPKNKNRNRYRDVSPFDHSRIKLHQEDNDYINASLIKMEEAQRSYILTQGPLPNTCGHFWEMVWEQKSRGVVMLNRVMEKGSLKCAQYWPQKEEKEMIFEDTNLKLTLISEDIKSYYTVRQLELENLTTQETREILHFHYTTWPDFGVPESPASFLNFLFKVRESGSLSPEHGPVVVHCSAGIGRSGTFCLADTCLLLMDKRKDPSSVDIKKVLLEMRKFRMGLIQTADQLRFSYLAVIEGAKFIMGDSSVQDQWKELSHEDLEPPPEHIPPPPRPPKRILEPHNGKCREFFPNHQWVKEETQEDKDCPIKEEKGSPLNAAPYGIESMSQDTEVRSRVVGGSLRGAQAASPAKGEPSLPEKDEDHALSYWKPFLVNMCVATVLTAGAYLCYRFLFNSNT
# Assay: PTP inhibition assay (pNPP)
# Type: biochemical
# Conditions: pNPP at Km, pH 7.0, 25° C.
row,SMILES,IC50 [µM]
1,O=C(NCCNC(=O)C(c1ccccc1)S(=O)(=O)O)c1cccc(C(=O)c2ccccc2)c1 (stereo not drawn) [Compound L319-02-A60],> 200
2,O=C(NCc1ccc(NC(=O)C(c2ccccc2)S(=O)(=O)O)cc1)c1ccccc1-c1ccc(C(F)(F)F)cc1 (stereo not drawn) [Compound L319-05-A64],183
3,O=C(C(c1ccccc1)S(=O)(=O)O)N1CCC(c2ccc(Cl)c(Cl)c2)CC1 (stereo not drawn) [Compound L319N47],145
4,O=C(CS(=O)(=O)O)Nc1nc2ccc([N+](=O)[O-])cc2s1 [Compound L335N15-07],> 100

# Molecular target: FAP1 (Homo sapiens, UniProt Q12923)
# Sequence (Q12923 whole entry): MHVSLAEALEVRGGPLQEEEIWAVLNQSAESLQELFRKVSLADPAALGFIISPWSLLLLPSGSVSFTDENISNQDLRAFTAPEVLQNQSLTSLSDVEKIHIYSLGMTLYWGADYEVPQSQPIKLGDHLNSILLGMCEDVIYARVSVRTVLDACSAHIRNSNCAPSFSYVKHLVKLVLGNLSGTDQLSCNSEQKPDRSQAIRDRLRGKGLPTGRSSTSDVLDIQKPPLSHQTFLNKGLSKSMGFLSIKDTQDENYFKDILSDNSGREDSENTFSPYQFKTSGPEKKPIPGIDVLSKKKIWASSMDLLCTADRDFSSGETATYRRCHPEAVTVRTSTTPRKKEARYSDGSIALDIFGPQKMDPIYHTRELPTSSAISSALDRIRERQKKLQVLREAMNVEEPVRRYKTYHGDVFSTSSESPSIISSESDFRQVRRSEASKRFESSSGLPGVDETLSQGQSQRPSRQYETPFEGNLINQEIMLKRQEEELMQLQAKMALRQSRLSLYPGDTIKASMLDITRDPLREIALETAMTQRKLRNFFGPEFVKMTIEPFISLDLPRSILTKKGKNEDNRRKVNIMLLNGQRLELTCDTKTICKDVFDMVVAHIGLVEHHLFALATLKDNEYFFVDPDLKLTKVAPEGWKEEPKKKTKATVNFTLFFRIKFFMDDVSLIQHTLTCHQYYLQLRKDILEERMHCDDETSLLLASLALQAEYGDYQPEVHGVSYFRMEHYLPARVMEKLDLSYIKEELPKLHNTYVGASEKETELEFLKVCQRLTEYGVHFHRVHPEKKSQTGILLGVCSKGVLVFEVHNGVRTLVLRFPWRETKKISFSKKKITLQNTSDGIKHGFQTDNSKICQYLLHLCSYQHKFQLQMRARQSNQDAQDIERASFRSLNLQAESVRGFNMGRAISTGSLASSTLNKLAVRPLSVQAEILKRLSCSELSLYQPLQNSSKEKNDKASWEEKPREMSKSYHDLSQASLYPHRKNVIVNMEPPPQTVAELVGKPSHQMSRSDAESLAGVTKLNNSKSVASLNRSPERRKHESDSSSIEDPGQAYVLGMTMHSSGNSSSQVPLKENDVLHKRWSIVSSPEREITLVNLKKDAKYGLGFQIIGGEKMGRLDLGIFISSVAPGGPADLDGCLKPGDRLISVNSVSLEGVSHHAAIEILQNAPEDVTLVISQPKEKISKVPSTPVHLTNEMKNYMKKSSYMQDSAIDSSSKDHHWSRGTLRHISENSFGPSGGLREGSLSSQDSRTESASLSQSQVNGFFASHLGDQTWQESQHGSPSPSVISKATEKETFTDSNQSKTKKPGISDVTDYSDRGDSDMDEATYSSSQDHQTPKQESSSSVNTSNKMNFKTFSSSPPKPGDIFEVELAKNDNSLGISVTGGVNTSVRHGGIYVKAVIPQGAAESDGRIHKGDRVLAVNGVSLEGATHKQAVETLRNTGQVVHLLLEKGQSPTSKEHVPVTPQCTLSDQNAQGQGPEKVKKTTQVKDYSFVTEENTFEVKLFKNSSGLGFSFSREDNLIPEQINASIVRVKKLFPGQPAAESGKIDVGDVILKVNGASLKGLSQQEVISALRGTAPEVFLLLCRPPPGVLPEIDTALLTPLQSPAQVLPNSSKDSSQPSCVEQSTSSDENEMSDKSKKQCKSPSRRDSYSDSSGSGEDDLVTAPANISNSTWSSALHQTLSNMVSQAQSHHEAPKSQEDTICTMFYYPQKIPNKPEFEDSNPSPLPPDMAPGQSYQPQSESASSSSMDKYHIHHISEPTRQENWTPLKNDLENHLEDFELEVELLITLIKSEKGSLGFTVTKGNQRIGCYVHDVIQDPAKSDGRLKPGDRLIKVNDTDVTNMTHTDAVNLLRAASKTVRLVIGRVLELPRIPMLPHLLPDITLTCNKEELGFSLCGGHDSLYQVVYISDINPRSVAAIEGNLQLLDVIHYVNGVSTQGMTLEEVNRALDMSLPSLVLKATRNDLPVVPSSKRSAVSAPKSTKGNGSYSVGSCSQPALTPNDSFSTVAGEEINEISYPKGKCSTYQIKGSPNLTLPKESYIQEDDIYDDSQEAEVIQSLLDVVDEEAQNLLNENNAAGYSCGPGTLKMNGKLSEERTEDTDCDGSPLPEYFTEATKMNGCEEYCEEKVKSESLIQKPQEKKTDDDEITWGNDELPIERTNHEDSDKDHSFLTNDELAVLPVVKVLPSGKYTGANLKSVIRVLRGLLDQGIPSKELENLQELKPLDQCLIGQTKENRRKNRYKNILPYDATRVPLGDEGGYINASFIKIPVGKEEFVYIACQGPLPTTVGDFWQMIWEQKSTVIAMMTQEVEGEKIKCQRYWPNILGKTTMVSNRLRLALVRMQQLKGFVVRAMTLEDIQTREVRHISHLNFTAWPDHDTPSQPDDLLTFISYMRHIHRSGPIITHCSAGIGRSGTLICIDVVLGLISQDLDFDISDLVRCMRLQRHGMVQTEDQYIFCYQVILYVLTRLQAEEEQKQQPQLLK
# Assay: PTP inhibition assay (pNPP)
# Type: biochemical
# Conditions: pNPP at Km, pH 7.0, 25° C.; read-out: IC50 FAP1
row,SMILES,IC50 [µM]
1,O=C(NCCNC(=O)C(c1ccccc1)S(=O)(=O)O)c1cccc(C(=O)c2ccccc2)c1 (stereo not drawn) [Compound L319-02-A60],> 200
2,O=C(NCc1ccc(NC(=O)C(c2ccccc2)S(=O)(=O)O)cc1)c1ccccc1-c1ccc(C(F)(F)F)cc1 (stereo not drawn) [Compound L319-05-A64],70
3,O=C(C(c1ccccc1)S(=O)(=O)O)N1CCC(c2ccc(Cl)c(Cl)c2)CC1 (stereo not drawn) [Compound L319N47],21
4,O=C(CS(=O)(=O)O)Nc1nc2ccc([N+](=O)[O-])cc2s1 [Compound L335N15-07],> 100

# Molecular target: VHR (Homo sapiens, UniProt P51452)
# Sequence (P51452 whole entry): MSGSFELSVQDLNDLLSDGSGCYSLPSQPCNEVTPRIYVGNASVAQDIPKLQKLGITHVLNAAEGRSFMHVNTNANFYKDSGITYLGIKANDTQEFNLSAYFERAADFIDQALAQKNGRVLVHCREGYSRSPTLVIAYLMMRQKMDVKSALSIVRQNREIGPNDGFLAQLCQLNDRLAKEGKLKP
# Assay: PTP inhibition assay (pNPP)
# Type: biochemical
# Conditions: pNPP at Km, pH 7.0, 25° C.
row,SMILES,IC50 [µM]
1,O=C(NCCNC(=O)C(c1ccccc1)S(=O)(=O)O)c1cccc(C(=O)c2ccccc2)c1 (stereo not drawn) [Compound L319-02-A60],> 200
2,O=C(C(c1ccccc1)S(=O)(=O)O)N1CCC(c2ccc(Cl)c(Cl)c2)CC1 (stereo not drawn) [Compound L319N47],99
3,O=C(CS(=O)(=O)O)Nc1nc2ccc([N+](=O)[O-])cc2s1 [Compound L335N15-07],> 100

# Molecular target: mPTPA (Mycobacterium tuberculosis, UniProt P9WIA1)
# Sequence (P9WIA1 whole entry): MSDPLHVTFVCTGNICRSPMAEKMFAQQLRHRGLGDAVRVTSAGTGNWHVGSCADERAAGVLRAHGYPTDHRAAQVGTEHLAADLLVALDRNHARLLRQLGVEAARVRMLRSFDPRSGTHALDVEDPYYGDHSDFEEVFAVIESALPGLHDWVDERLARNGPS
# Assay: biochemical
# Conditions: IC50 mPTPA
row,SMILES,IC50 [µM]
1,O=C(C(c1ccccc1)S(=O)(=O)O)N1CCC(c2ccc(Cl)c(Cl)c2)CC1 (stereo not drawn) [Compound L319N47],11.3

# Molecular target: T3, PEST (Homo sapiens, UniProt Q05209)
# T3 sequence (Q05209 1-780): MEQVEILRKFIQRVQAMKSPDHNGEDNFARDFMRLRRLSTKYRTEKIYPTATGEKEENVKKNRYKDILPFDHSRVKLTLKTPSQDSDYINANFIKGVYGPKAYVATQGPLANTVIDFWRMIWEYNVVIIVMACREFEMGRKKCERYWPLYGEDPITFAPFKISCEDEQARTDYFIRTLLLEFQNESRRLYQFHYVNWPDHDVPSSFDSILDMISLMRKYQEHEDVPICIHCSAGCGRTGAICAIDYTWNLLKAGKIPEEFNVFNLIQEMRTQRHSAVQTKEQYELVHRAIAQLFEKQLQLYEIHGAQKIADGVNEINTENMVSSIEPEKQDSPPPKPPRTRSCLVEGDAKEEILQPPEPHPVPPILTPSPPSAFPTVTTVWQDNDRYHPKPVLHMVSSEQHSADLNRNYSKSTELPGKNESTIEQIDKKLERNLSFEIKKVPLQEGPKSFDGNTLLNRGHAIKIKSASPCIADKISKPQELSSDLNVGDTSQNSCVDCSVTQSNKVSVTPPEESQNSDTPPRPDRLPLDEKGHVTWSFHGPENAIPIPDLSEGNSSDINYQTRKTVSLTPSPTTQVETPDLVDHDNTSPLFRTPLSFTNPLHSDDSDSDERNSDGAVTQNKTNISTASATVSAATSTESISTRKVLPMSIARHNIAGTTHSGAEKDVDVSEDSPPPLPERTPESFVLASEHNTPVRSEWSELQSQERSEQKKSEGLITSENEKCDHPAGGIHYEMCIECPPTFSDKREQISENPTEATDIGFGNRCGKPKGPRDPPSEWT
# Assay: PTP inhibition assay (pNPP)
# Type: biochemical
# Conditions: pNPP at Km, pH 7.0, 25° C.; read-out: IC50 PEST
row,SMILES,IC50 [µM]
1,O=C(NCCNC(=O)C(c1ccccc1)S(=O)(=O)O)c1cccc(C(=O)c2ccccc2)c1 (stereo not drawn) [Compound L319-02-A60],> 200
2,O=C(NCc1ccc(NC(=O)C(c2ccccc2)S(=O)(=O)O)cc1)c1ccccc1-c1ccc(C(F)(F)F)cc1 (stereo not drawn) [Compound L319-05-A64],160
3,O=C(C(c1ccccc1)S(=O)(=O)O)N1CCC(c2ccc(Cl)c(Cl)c2)CC1 (stereo not drawn) [Compound L319N47],42
4,O=C(CS(=O)(=O)O)Nc1nc2ccc([N+](=O)[O-])cc2s1 [Compound L335N15-07],> 100

# Molecular target: T4, TcPTP (Homo sapiens, UniProt P17706)
# T4 sequence (P17706 1-415): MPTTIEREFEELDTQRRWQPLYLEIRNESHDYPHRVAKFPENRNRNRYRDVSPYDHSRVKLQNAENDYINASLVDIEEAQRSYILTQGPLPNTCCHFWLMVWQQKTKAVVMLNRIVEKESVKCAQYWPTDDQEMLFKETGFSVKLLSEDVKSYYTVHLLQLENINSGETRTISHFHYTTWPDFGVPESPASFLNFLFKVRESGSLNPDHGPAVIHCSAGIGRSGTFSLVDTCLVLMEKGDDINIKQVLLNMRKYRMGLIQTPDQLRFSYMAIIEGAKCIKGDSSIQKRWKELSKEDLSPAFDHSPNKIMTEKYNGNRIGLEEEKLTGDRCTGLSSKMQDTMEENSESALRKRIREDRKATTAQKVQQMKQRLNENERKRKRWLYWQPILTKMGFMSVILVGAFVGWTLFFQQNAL
# Assay: PTP inhibition assay (pNPP)
# Type: biochemical
# Conditions: pNPP at Km, pH 7.0, 25° C.; read-out: IC50 TcPTP
row,SMILES,IC50 [µM]
1,O=C(NCCNC(=O)C(c1ccccc1)S(=O)(=O)O)c1cccc(C(=O)c2ccccc2)c1 (stereo not drawn) [Compound L319-02-A60],> 200
2,O=C(NCc1ccc(NC(=O)C(c2ccccc2)S(=O)(=O)O)cc1)c1ccccc1-c1ccc(C(F)(F)F)cc1 (stereo not drawn) [Compound L319-05-A64],96
3,O=C(C(c1ccccc1)S(=O)(=O)O)N1CCC(c2ccc(Cl)c(Cl)c2)CC1 (stereo not drawn) [Compound L319N47],160
4,O=C(CS(=O)(=O)O)Nc1nc2ccc([N+](=O)[O-])cc2s1 [Compound L335N15-07],> 100

# Molecular target: TbPTP1 (Trypanosoma brucei brucei, UniProt Q38AT7)
# Sequence (Q38AT7 entry or part of it): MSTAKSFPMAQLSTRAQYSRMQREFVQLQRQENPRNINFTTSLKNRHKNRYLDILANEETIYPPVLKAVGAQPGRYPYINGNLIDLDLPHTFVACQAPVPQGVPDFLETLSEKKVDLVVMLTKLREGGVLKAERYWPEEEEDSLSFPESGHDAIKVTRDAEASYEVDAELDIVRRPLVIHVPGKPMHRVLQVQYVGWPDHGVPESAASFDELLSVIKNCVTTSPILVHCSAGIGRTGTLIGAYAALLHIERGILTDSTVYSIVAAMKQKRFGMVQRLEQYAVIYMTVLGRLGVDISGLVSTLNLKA
# Assay: PTP inhibition assay (pNPP)
# Type: biochemical
# Conditions: pNPP at Km, pH 7.0, 25° C.; read-out: IC50 TbPTP1
row,SMILES,IC50 [µM]
1,O=C(NCCNC(=O)C(c1ccccc1)S(=O)(=O)O)c1cccc(C(=O)c2ccccc2)c1 (stereo not drawn) [Compound L319-02-A60],> 200
2,O=C(NCc1ccc(NC(=O)C(c2ccccc2)S(=O)(=O)O)cc1)c1ccccc1-c1ccc(C(F)(F)F)cc1 (stereo not drawn) [Compound L319-05-A64],93
3,O=C(C(c1ccccc1)S(=O)(=O)O)N1CCC(c2ccc(Cl)c(Cl)c2)CC1 (stereo not drawn) [Compound L319N47],38
4,O=C(CS(=O)(=O)O)Nc1nc2ccc([N+](=O)[O-])cc2s1 [Compound L335N15-07],> 100

# Molecular target: PTPε (Homo sapiens, UniProt P23469)
# Assay: PTP inhibition assay (pNPP)
# Type: biochemical
# Conditions: not given
row,SMILES,IC50 [µM]
1,O=C(C(c1ccccc1)S(=O)(=O)O)N1CCC(c2ccc(Cl)c(Cl)c2)CC1 (stereo not drawn) [Compound L319N47],> 200
2,O=C(CS(=O)(=O)O)Nc1nc2ccc([N+](=O)[O-])cc2s1 [Compound L335N15-07],> 100
